Holding throughout (assay): inhibition of tumour cell growth, NCI panel, 48 h
The subject of assay [1] is A498 renal.
Assay [2] has as its system CCRF-CEM leukemia.
For assay [3], the system named is LOX IMVI melanoma.
Assay [4] has as its system MOLT-4 leukemia.
Assay [5] deals with NCI-H226 lung.
The test system of assay [6] is NCI-H23 lung.
In assay [7] the test system is RXF 393 renal.
In assay [8] the test system is SK-MEL-28 melanoma.
Assay [9] concerns T-47D breast.
Assay [10] deals with UO-31 renal.

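Test compounds were applied to cells in 96-well plates for 48 hours at 5 doses. At the GI50, growth is halved. The concentration for full growth arrest is given as TGI.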

As to `CCCCC[C@H]1C/C=C2/C(=O)C(Cl)=C[C@@H]2C/C=C\CCCC(=O)O1`, the GI50 is 546 nM in assay [1]; 113 nM in [2]; 126 nM in [3]; 117 nM in assay [4]; 0.544 µM in [5]; 0.493 µM in [6]. Also, the GI50 was 457 nM in assay [7], 0.472 µM in assay [8], 554 nM in assay [9] and 379 nM in assay [10]. The TGI in assay [1] is 1.46 µM; in assay [2], 2.93 µM; in assay [3], 0.449 µM; in assay [4], 2.98 µM; in [5] it was 1.5 µM; in assay [6] it was 1.18 µM. Besides, the TGI in assay [7] came out at 0.868 µM; in [8] it was 1.12 µM; in [9], 2.08 µM; in assay [10], 0.717 µM.
For `C(=C\c1ccc(OCC2CO2)cc1)/C1=NCOC1` (stereo not given), the GI50 in [1] was 21900 nM; in assay [2], 2890 nM; in assay [3] it was 3350 nM; in assay [4], 3240 nM; in assay [5], 16.4 µM; in assay [6], 10.7 µM. The GI50 in assay [7] is 2050 nM; in assay [8] it was 6.3 µM; in assay [9], 3570 nM; in assay [10], 3640 nM. Also, the TGI was 43.2 µM in assay [1]; 13.3 µM in [2]; 13.6 µM in [3]; 16.8 µM in [4]; 34.5 µM in assay [5]; 40.2 µM in [6]. Also, the TGI in [7] was 6.34 µM; in assay [8] it was 21.4 µM; in assay [9] it was 18.6 µM; in assay [10], 12.8 µM.
As for `c1ccc2c(c1)[nH]c1c3ccccc3sc21`, the TGI in [1], in assay [2], in [3], in assay [4], in assay [5] and in assay [6] was more than 100 µM each time. In addition, the TGI in assay [7], in [8], in assay [9] and in assay [10] was more than 100 µM each time.
For the molecule `Cn1cc(-c2nc(-c3cn(C)c4ncccc34)cs2)c2ccccc21`, the GI50 in assay [1] is 1500 nM; in assay [2] it was 2980 nM; in [3] it was 1270 nM; in assay [4], 4650 nM; in [5] it was 2.29 µM; in [6], 3.14 µM. The GI50 in assay [7] is 1530 nM; in assay [8], 2.09 µM; in [9] it was 2980 nM; in assay [10], 4930 nM. Further, the TGI in assay [1] was 13.5 µM; in assay [2] it was more than 100 µM; in assay [3] it was more than 100 µM; in [4], more than 100 µM; in [5] it was 14.4 µM; in assay [6] it was 23.9 µM. The TGI in [7] is 4.09 µM; in assay [8] it was more than 100 µM; in [9], 17 µM; in [10] it was more than 100 µM.
For `OCC1OC(n2cnc3c(NCc4ccco4)ncnc32)C(O)C1O` (stereo not given), the GI50 in [1] was 1590 nM; in [2], 430 nM; in assay [3], 338 nM; in assay [4] it was 585 nM; in [5], 12 µM; in assay [6], 2.87 µM. Further, the GI50 in assay [7] is 2210 nM; in assay [8] it was 8.72 µM; in assay [9], 2430 nM; in assay [10], 567 nM. Further, the TGI in [1] is 5.5 µM; in assay [2], 5.4 µM; in assay [3], 1.48 µM; in [4], 6.25 µM; in [5], more than 71.2 µM; in assay [6], 31.8 µM. The TGI in assay [7] was 15 µM; in assay [8], more than 100 µM; in assay [9] it was 11.3 µM; in [10], 53.7 µM.

The values are drawn from PubChem BioAssay (NCI).
